Data taken from patent publication US20140309265A1, “MACROCYCLIC COMPOUNDS FOR INHIBITION OF INHIBITORS OF APOPTOSIS” (Ensemble Therapeutics, priority 2011, published 2014).

Experiments:
Type in all cases: binding
[1] = biological target: T1, XIAP His-BIR2 (124-240/C202A/C213G) (Homo sapiens, UniProt P98170, C202A/C213G); assay: XIAP-BIR2/SMAC Peptide AlphaScreen Assay; conditions: XIAP BIR2, AlphaScreen, Table 2; read-out: BIR2 IC50
T1 construct: additions of His-BIR2 (124-240/C202A/C213G), Biotinylated SMAC peptide
Description: A. XIAP-BIR2/SMAC Peptide AlphaScreen Assay Assays were performed in white, flat-bottom, 384-well ProxiPlates (Perkin Elmer). […] The reaction was incubated at room temperature for 60 minutes. After 60 minutes, 2.5 μL of Alphascreen detection reagent (Perkin Elmer) was added to the reaction mixture and incubated at room temperature in the dark for 120 minutes. The Alphascreen signal generated by the reaction was detected on the Envision Plate Reader. […] Compounds were dissolved at 10 mM in dimethylsulfoxide (DMSO) and evaluated at eleven concentrations. IC50 values were derived by non-linear regression analysis.

[2] = biological target: N-His-Tb-BIR3(241-356, XIAP) (Homo sapiens, UniProt P98170); assay: XIAP-BIR3 SMAC Peptide Fluorescence Polarization Assay (FPA)
His-BIR3 (241-356, XIAP) = biological target: T2, His-BIR3 (241-356, XIAP) (Homo sapiens, UniProt P98170); assay: XIAP-BIR3/SMAC Homogeneous Time Resolved Fluorescence (HTRF) Assay; conditions: Table 4
T2 construct: additions of His-BIR3 (241-356, XIAP), fluorescein labeled SMAC peptide

[3] = biological target: T3, His-BIR2-3 (125-356, C202A/C213G, XIAP) (Homo sapiens, UniProt P98170, C202A/C213G); assay: XIAP-BIR2-3 Dimeric SMAC Peptide Homogeneous Time Resolved Fluorescence (HTRF) Assay; conditions: XIAP BIR2-3, HTRF, Table 4
T3 construct: additions of His-BIR2-3 (125-356, C202A/C213G, XIAP), fluorescein labeled dimeric SMAC peptide
T3 sequence (P98170 125-356 C202A/C213G): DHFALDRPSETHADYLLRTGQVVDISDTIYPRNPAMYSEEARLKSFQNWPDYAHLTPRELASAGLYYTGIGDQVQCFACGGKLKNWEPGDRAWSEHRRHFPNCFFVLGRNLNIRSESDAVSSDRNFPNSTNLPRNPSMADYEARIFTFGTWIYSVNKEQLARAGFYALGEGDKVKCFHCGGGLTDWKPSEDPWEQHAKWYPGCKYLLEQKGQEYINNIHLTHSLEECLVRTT

T1 sequence (P98170 124-240 C202A/C213G): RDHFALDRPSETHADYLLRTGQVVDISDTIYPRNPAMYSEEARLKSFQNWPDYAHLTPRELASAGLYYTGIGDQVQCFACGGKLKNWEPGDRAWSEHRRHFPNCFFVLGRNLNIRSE
Chain of N-His-Tb-BIR3(241-356, XIAP) (P98170 241-356): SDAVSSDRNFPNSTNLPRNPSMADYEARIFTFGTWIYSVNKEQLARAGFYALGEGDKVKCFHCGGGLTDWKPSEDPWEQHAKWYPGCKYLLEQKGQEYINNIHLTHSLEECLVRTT
T2 sequence (P98170 241-356): as above

## CN[C@@H](C)C(=O)N[C@H](C(=O)N1C[C@@H]2C[C@H]1C(=O)N[C@@H](Cc1ccccc1)C(=O)N[C@H](C(=O)O)Cc1ccc(cc1)OCc1cn(nn1)[C@H]1C[C@@H](C(=O)N[C@@H](Cc3ccccc3)C(=O)N[C@H](C(=O)O)Cc3ccc(cc3)OCc3cn2nn3)N(C(=O)[C@@H](NC(=O)[C@H](C)NC)C(C)C)C1)C(C)C [Compound 101]
[1]
  IC50: < 2000 nM
[2]
  IC50: 50 to 100 nM

## CN[C@@H](C)C(=O)N[C@H](C(=O)N1C[C@@H]2C[C@H]1C(=O)N[C@@H](Cc1ccccc1)C(=O)N[C@@H](C(=O)O)Cc1ccc(cc1)NC(=O)CCc1cn(nn1)[C@H]1C[C@@H](C(=O)N[C@@H](Cc3ccccc3)C(=O)N[C@@H](C(=O)O)Cc3ccc(cc3)NC(=O)CCc3cn2nn3)N(C(=O)[C@@H](NC(=O)[C@H](C)NC)C(C)C)C1)C(C)C [Compound 102]
[1]
  IC50: < 2000 nM
[2]
  IC50: 50 to 100 nM

## CN[C@@H](C)C(=O)N[C@H](C(=O)N1C[C@@H]2C[C@H]1C(=O)N[C@@H](Cc1ccccc1)C(=O)NCc1cn(nn1)[C@H]1C[C@@H](C(=O)N[C@@H](Cc3ccccc3)C(=O)NCc3cn2nn3)N(C(=O)[C@@H](NC(=O)[C@H](C)NC)C(C)C)C1)C(C)C [Compound 116]
[1]
  IC50: < 2000 nM

## CN[C@@H](C)C(=O)N[C@H](C(=O)N1C[C@@H]2CC1C(=O)N[C@@H](Cc1ccccc1)C(=O)N[C@H](C(=O)O)Cc1ccc(cc1)OCc1cn(nn1)[C@H]1C[C@@H](C(=O)N[C@@H](Cc3ccccc3)C(=O)NCc3cn2nn3)N(C(=O)[C@@H](NC(=O)[C@H](C)NC)C(C)C)C1)C(C)C [Compound 135]
[1]
  IC50: < 2000 nM

## CN[C@@H](C)C(=O)N[C@H](C(=O)N1C[C@@H]2C[C@H]1C(=O)N[C@@H](Cc1ccc3ccccc3c1)C(=O)N[C@H](C(=O)O)Cc1ccc(cc1)OCc1ccc(cc1)-c1cn(nn1)[C@H]1C[C@@H](C(=O)N[C@@H](Cc3ccc4ccccc4c3)C(=O)N[C@H](C(=O)O)Cc3ccc(cc3)OCc3cn2nn3)N(C(=O)[C@@H](NC(=O)[C@H](C)NC)C(C)(C)C)C1)C(C)(C)C [Compound 1000]
[2]
  IC50: 50 to 100 nM

## CN[C@@H](C)C(=O)N[C@H](C(=O)N1C[C@@H]2C[C@H]1C(=O)N[C@@H](Cc1ccc3ccccc3c1)C(=O)N[C@H](C(=O)O)Cc1ccc(cc1)OCc1cn(nn1)[C@H]1C[C@@H](C(=O)N[C@@H](Cc3ccc4ccccc4c3)C(=O)N[C@H](c3nnn[nH]3)Cc3ccc(cc3)OCc3cn2nn3)N(C(=O)[C@@H](NC(=O)[C@H](C)NC)C(C)(C)C)C1)C(C)(C)C [Compound 1048]
His-BIR3 (241-356, XIAP)
  IC50: < 10 nM
[3]
  IC50: ≤ 1 nM

## CN[C@@H](C)C(=O)N[C@H](C(=O)N1CCN2CCn3cc(nn3)C[C@@H](C(=O)OC)NC(=O)[C@H](Cc3ccc4ccccc4c3)NC(=O)[C@@H]3CN(CCN3C(=O)[C@@H](NC(=O)[C@H](C)NC)C(C)C)CCn3cc(nn3)C[C@@H](C(=O)O)NC(=O)[C@H](Cc3ccc4ccccc4c3)NC(=O)[C@@H]1C2)C(C)C [Compound 1049]
His-BIR3 (241-356, XIAP)
  IC50: > 100 nM
[3]
  IC50: 1 to 10 nM

## CN[C@@H](C)C(=O)N[C@H](C(=O)N1CCN2C[C@H]1C(=O)N[C@@H](Cc1ccc3ccccc3c1)C(=O)N[C@H](C(=O)O)Cc1cn(nn1)CC(=O)N1CCN(C(=O)[C@@H](NC(=O)[C@H](C)NC)C(C)(C)C)[C@@H](C1)C(=O)N[C@@H](Cc1ccc3ccccc3c1)C(=O)N[C@H](C(=O)O)Cc1cn(nn1)CC2=O)C(C)(C)C [Compound 1051]
His-BIR3 (241-356, XIAP)
  IC50: > 100 nM
[3]
  IC50: > 10 nM

## CN[C@@H](C)C(=O)N[C@H](C(=O)N1C[C@@H]2C[C@H]1C(=O)N[C@@H](Cc1ccc3ccccc3c1)C(=O)N[C@H](C(=O)O)Cc1ccc(cc1)OCc1cn(nn1)[C@H]1C[C@@H](C(=O)N[C@@H](Cc3ccc4ccccc4c3)C(=O)N[C@H](C(=O)NS(=O)(=O)CCCNC(C)=O)Cc3ccc(cc3)OCc3cn2nn3)N(C(=O)[C@@H](NC(=O)[C@H](C)NC)C(C)(C)C)C1)C(C)(C)C [Compound 1052]
His-BIR3 (241-356, XIAP)
  IC50: < 10 nM
[3]
  IC50: ≤ 1 nM
